# Activity calls are given as the source filed them. No cut-off for these calls is given here.
# How the values were obtained:
# [1] = biological target: T1, Metabotropic glutamate receptor 5 (Homo sapiens, UniProt P41594); experiment: Displacement of [3H]MPEP from mGlu5 receptor
# [2] = biological target: T1, Metabotropic glutamate receptor 5; experiment: Antagonist activity at mGluR5 by FLIPR; format: functional
# [3] = Metabolic stability in rat liver microsomes; format: ADME, Microsome
# [4] = Metabolic stability in human liver microsomes; format: ADME, Microsome
# [5] = system: Rattus norvegicus; experiment: Anxiolytic-like activity in rat assessed as increase in drinking time at 30 mg/kg, po by Vogel conflict test; format: functional, organism-based; design: dose 30 mg/kg
# [6] = species on record: Rattus norvegicus; experiment: Anxiolytic-like activity in rat assessed as reversal of foot shock-induced suppression of lever pressing by conditioned emotional response test; format: functional, organism-based
# [7] = system: Rattus norvegicus; experiment: Anxiolytic-like activity in rat assessed as behavioral disruption at 3 to 30 mg/kg, po by conditioned emotional response test; format: functional, organism-based
# [8] = species on record: Rattus norvegicus; experiment: Anxiolytic-like activity in rat assessed as reversal of foot shock-induced suppression of lever pressing by conflict test; format: functional, organism-based
# [9] = system: Rattus norvegicus; experiment: Anxiolytic-like activity in rat assessed as behavioral disruption at 3 to 30 mg/kg, po by conflict test; format: functional, organism-based
# T1 sequence (P41594 whole entry): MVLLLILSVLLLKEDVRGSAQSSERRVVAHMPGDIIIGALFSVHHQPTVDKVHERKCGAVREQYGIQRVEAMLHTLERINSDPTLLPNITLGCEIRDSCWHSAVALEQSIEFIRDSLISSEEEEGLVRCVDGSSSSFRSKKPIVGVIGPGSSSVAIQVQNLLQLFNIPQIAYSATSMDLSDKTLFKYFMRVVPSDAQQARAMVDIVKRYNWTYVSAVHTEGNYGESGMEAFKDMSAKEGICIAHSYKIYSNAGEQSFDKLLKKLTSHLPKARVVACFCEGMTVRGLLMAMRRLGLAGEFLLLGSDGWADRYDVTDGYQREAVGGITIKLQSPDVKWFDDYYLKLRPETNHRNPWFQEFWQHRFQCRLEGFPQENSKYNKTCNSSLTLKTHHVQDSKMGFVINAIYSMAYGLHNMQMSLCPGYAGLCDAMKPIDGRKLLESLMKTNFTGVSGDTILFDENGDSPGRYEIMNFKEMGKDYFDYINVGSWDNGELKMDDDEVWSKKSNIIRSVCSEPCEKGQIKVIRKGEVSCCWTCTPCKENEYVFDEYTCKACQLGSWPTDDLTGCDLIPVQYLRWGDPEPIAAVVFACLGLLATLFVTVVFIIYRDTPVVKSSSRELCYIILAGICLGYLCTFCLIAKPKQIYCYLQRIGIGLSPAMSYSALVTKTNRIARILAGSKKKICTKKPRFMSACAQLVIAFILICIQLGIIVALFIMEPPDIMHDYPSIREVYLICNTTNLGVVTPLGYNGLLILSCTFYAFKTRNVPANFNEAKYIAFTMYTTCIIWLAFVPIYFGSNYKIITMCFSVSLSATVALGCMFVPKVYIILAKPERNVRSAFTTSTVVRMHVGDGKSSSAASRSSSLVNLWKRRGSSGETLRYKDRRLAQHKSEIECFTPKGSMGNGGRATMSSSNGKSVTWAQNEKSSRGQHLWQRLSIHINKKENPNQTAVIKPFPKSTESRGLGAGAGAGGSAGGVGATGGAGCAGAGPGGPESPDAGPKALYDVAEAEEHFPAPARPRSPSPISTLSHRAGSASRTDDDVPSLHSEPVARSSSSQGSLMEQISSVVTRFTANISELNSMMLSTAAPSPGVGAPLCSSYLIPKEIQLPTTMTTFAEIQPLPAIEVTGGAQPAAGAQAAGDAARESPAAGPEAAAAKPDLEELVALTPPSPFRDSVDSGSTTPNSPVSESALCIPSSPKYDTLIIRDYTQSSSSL
IC50 [1],IC50 [2],microsomal CLint [3],microsomal CLint [4],Structure (SMILES),also measured
> 5000 nM,> 5000 nM,5 µL/min/mg,20 µL/min/mg,CN1CC(=O)N/C1=N\C(=O)Nc1cccnc1,–
587 nM,1100 nM,22 µL/min/mg,47 µL/min/mg,CN1CC(=O)N/C1=N\C(=O)Nc1ccccn1,–
700 nM,4020 nM,–,–,CN1CC(=O)N/C1=N\C(=O)Nc1ccsc1,–
1120 nM,> 5000 nM,9 µL/min/mg,11 µL/min/mg,CN1CC(=O)N/C1=N\C(=O)Nc1ccncc1,–
1360 nM,3300 nM,–,–,CN1CC(=O)N/C1=N\C(=O)Nc1ccccc1,–

# The remaining lines, values behind:
Structure (SMILES),IC50 [1],IC50 [2],microsomal CLint [3],microsomal CLint [4],also measured
Cc1cccc(C#Cc2ccc(Cl)cc2)n1,286 nM,1020 nM,–,–,–
CN1CC(=O)N=C1NC(=O)Nc1cccc(Cl)c1 [FENOBAM ANHYDROUS],61 nM,38 nM,44 µL/min/mg,100 µL/min/mg,–
Cc1cccc(C#Cc2cccc(Cl)c2)n1,3 nM,7 nM,–,–,–
Cc1cccc(C#Cc2cccnc2)n1,10 nM,66 nM,–,–,–
Cc1cccc(C#Cc2ccccn2)n1,39 nM,400 nM,–,–,–
Cc1cccc(C#Cc2ccncc2)n1,26 nM,213 nM,–,–,–
Cc1cccc(C#Cc2ccccc2Cl)n1,5 nM,15 nM,–,–,–
CN1CC(=O)N/C1=N\C(=O)Nc1ccccc1Cl,2520 nM,6800 nM,–,–,–
CN1CC(=O)N/C1=N\C(=O)Nc1csc(Cl)c1,78 nM,434 nM,27 µL/min/mg,55 µL/min/mg,Activity [5]: Active; Activity [6]: Dose-dependent effect; Activity [7]: inactive; Activity [8]: Dose-dependent effect; Activity [9]: inactive
CN1CC(=O)N/C1=N\C(=O)Nc1ccc(Cl)cc1,> 5000 nM,> 5000 nM,–,–,–

# — ChEMBL document CHEMBL1139085, “Synthesis and biological evaluation of fenobam analogs as mGlu5 receptor antagonists” (Bioorg Med Chem Lett, 2007)
